# Source: patent publication US20240391948A1, “NOVEL COMPOUND THAT INHIBITS TNF-ALPHA GENERATION AND INFLAMMASOME ACTIVITY AND PREPARATION METHOD THEREFOR” (SHAPERON INC., priority 2021, published 2024)
# Legend:
# Type in all cases: cell-based
# [1] = tested on: J774A.1 (Mouse BALB/c monocyte macrophage cell line) cells; test: LPS-induced TNF-α secretion inhibition in J774A.1 cells; conditions: J774.A1, 1 μM compound, graded compared to taurodeoxycholic acid (positive control), read-out: TNF-α production inhibition grade
# Procedure, shortened: (§1)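 Grades (A >100%, B 50–100%, C 20–50%, D <20%) express cytokine suppression by 1 μM compound relative to taurodeoxycholic acid. LPS-induced TNF-α and LPS+ATP-induced IL-1β secretion were measured in murine J774A.1 macrophage cells.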
# [2] = tested on: J774A.1 (Mouse BALB/c monocyte macrophage cell line) cells; test: LPS+ATP-induced IL-1β secretion inhibition in J774A.1 cells; conditions: J774.A1, 1 μM compound, graded compared to taurodeoxycholic acid (positive control), read-out: IL-1β production inhibition grade
# Procedure, shortened: as §1
# [3] = tested on: U937 cells (human monocytic cell line); test: Pam2CSK4-induced TNF-α secretion inhibition in PMA-differentiated U937 cells; conditions: U-937, U937 cells differentiated with PMA, read-out: TNF-α production inhibition grade (IC50)
# Procedure, shortened: (§2)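 Inhibition is given as IC50 (μM) in A-D bands, using distinct thresholds for TNF-α and for IL-1β. Secretion followed Pam2CSK4 stimulation (TNF-α) or BzATP stimulation (IL-1β) of compound-pretreated, PMA-differentiated U937 macrophages.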
# [4] = tested on: U937 cells (human monocytic cell line); test: BzATP-induced IL-1β secretion inhibition in PMA-differentiated U937 cells; conditions: U-937, U937 cells differentiated with PMA, read-out: IL-1β production inhibition grade (IC50)
# Procedure, shortened: as §2
SMILES,inhibition at 1 µM [1] [%],inhibition at 1 µM [2] [%],IC50 [3] [nM],IC50 [4] [nM]
C[C@H](CCC(=O)N[C@H](CS(=O)(=O)O)c1ccccc1)[C@H]1CC[C@H]2[C@@H]3[C@H](O)C[C@@H]4C[C@H](O)CC[C@]4(C)[C@H]3C[C@H](O)[C@]12C [NC20018],< 20,< 20,1000 to 2000,≥ 200
C[C@H](CCC(=O)N1CCC(S(=O)(=O)O)CC1)[C@H]1CC[C@H]2[C@@H]3CC[C@@H]4CC(=O)CC[C@]4(C)[C@H]3CC[C@]12C [NC30011],< 20,< 20,500 to 1000,≥ 200
CC(C)[C@H](CS(=O)(=O)O)NC(=O)CC[C@@H](C)[C@H]1CC[C@H]2[C@@H]3CC[C@@H]4C[C@H](O)CC[C@]4(C)[C@H]3C[C@H](O)[C@]12C [NC10033],< 20,50 to 100,500 to 1000,100 to 200
C[C@H](CCC(=O)N(CCS(=O)(=O)O)Cc1cccnc1)[C@H]1CC[C@H]2[C@@H]3CC[C@@H]4C[C@H](O)CC[C@]4(C)[C@H]3C[C@H](O)[C@]12C [NC10051],< 20,50 to 100,1000 to 2000,50 to 100
C[C@H](CCC(=O)N[C@H]1CCCC[C@H]1S(=O)(=O)O)[C@H]1CC[C@H]2[C@@H]3CC[C@@H]4CC(=O)CC[C@]4(C)[C@H]3CC[C@]12C [NC30027],> 100,> 100,500 to 1000,< 50
CC[C@H]1[C@@H](O)[C@@H]2[C@H](C[C@H](O)[C@]3(C)[C@@H]([C@H](C)CCC(=O)N[C@H](C)CS(=O)(=O)O)CC[C@@H]23)[C@@]2(C)CC[C@@H](O)C[C@@H]12 [NC50029],< 20,50 to 100,500 to 1000,≥ 200
C[C@H](CS(=O)(=O)O)NC(=O)CC[C@@H](C)[C@H]1CC[C@H]2[C@@H]3[C@H](O)C[C@@H]4C[C@H](O)CC[C@]4(C)[C@H]3C[C@H](O)[C@]12C [NC20029],< 20,< 20,< 500,50 to 100
C[C@H](CCC(=O)N(CCS(=O)(=O)O)C1CCCCC1)[C@H]1CC[C@H]2[C@@H]3CC[C@@H]4C[C@H](O)CC[C@]4(C)[C@H]3CC[C@]12C [NC10016],> 100,> 100,< 500,< 50
C[C@H](CCC(=O)N1CCN(S(=O)(=O)O)CC1)[C@H]1CC[C@H]2[C@@H]3CC[C@@H]4C[C@H](O)CC[C@]4(C)[C@H]3C[C@H](O)[C@]12C [NC10009],> 100,> 100,< 500,< 50
C[C@H](CCC(=O)NC(C)(C)CS(=O)(=O)O)[C@H]1CC[C@H]2[C@@H]3[C@H](O)C[C@@H]4C[C@H](O)CC[C@]4(C)[C@H]3C[C@H](O)[C@]12C [NC20013],< 20,> 100,1000 to 2000,< 50
C[C@H](CCC(=O)NC[C@@H](C)S(=O)(=O)O)[C@H]1CC[C@H]2[C@@H]3[C@H](O)C[C@@H]4C[C@H](O)CC[C@]4(C)[C@H]3C[C@H](O)[C@]12C [NC20023],< 20,< 20,≥ 2000,50 to 100
CC[C@H]1[C@@H](O)[C@@H]2[C@H](CC[C@]3(C)[C@@H]([C@H](C)CCC(=O)N(CCO)CCS(=O)(=O)O)CC[C@@H]23)[C@@]2(C)CC[C@@H](O)C[C@@H]12 [NC40006],20 to 50,50 to 100,1000 to 2000,≥ 200
C[C@H](CCC(=O)N1CCC(CCS(=O)(=O)O)CC1)[C@H]1CC[C@H]2[C@@H]3CC[C@@H]4C[C@H](O)CC[C@]4(C)[C@H]3C[C@H](O)[C@]12C [NC10008],> 100,> 100,< 500,< 50
C[C@H](CCC(=O)N1CCC[C@H]1CS(=O)(=O)O)[C@H]1CC[C@H]2[C@@H]3[C@H](O)C[C@@H]4C[C@H](O)CC[C@]4(C)[C@H]3C[C@H](O)[C@]12C [NC20021],< 20,< 20,1000 to 2000,50 to 100
CC[C@H]1[C@@H](O)[C@@H]2[C@H](CC[C@]3(C)[C@@H]([C@H](C)CCC(=O)N[C@H](Cc4ccccc4)CS(=O)(=O)O)CC[C@@H]23)[C@@]2(C)CC[C@@H](O)C[C@@H]12 [NC40015],< 20,> 100,500 to 1000,50 to 100
C[C@H](CCC(=O)N[C@H]1CCCC[C@H]1S(=O)(=O)O)[C@H]1CC[C@H]2[C@@H]3CC[C@@H]4C[C@H](O)CC[C@]4(C)[C@H]3C[C@H](O)[C@]12C [NC10042],< 20,< 20,500 to 1000,≥ 200
C[C@H](CCC(=O)N[C@@H](Cc1ccccc1)CS(=O)(=O)O)[C@H]1CC[C@H]2[C@@H]3CC[C@@H]4CC(=O)CC[C@]4(C)[C@H]3CC[C@]12C [NC30014],< 20,20 to 50,500 to 1000,≥ 200
CC(C)C[C@H](CS(=O)(=O)O)NC(=O)CC[C@@H](C)[C@H]1CC[C@H]2[C@@H]3CC[C@@H]4CC(=O)CC[C@]4(C)[C@H]3CC[C@]12C [NC30031],< 20,20 to 50,500 to 1000,≥ 200
C[C@H](CCC(=O)N(CCS(=O)(=O)O)C1CCOCC1)[C@H]1CC[C@H]2[C@@H]3CC[C@@H]4CC(=O)CC[C@]4(C)[C@H]3CC[C@]12C [NC30008],< 20,50 to 100,500 to 1000,≥ 200
C[C@H](CCC(=O)N1CCC(CCS(=O)(=O)O)CC1)[C@H]1CC[C@H]2[C@@H]3CC[C@@H]4C[C@H](O)CC[C@]4(C)[C@H]3CC[C@]12C [NC10012],> 100,> 100,< 500,< 50
CC[C@H]1[C@@H](O)[C@@H]2[C@H](CC[C@]3(C)[C@@H]([C@H](C)CCC(=O)N[C@@H](CO)CS(=O)(=O)O)CC[C@@H]23)[C@@]2(C)CC[C@@H](O)C[C@@H]12 [NC40024],< 20,< 20,500 to 1000,≥ 200
C[C@H](CCC(=O)N[C@@H](CO)CS(=O)(=O)O)[C@H]1CC[C@H]2[C@@H]3CC[C@@H]4C[C@H](O)CC[C@]4(C)[C@H]3C[C@H](O)[C@]12C [NC10040],< 20,< 20,1000 to 2000,≥ 200
C[C@H](CCC(=O)N1CC[C@@H](S(=O)(=O)O)C1)[C@H]1CC[C@H]2[C@@H]3CC[C@@H]4C[C@H](O)CC[C@]4(C)[C@H]3C[C@H](O)[C@]12C [NC10049],< 20,> 100,< 500,< 50
